Common to all, as to assay type: in vivo, rat
In assay [1] the test system is Female Wistar rats. In words: Basal sensitivity to colorectal distension model. The note with it: 30 mg/kg by oral gavage; CRD measured 2 hrs later; 0-60 mmHg.
In assay [2] the test system is Female Wistar rats. In words: Partial restraint stress-induced hyperalgesia model. The following applies: 30 mg/kg orally, 1 hr 15 min into 2 hr PRS; CRD 2 hrs later; 45 and 60 mmHg. The protocol: Female Wistar rats surgically prepared for electromyography as described in Example 1 were used to evaluate the effects of the FAAH inhibitors (a) compound A or (b) compound B, on colorectal sensitivity and compliance after a 2 hour partial restraint stress session.
Partial restraint stress (PRS), a relatively mild stress, was induced as previously described (Morteau et al. Dig. Dis. Sci. 1994: 39:1239-48; “Guanylate cyclase C-mediated antinociceptive effects of linaclotide in rodent models of visceral pain”, Eutamene H, Bradesi S, Larauche M, Theodorou V, Beaufrand C, Ohning G, Fioramonti J, Cohen M, Bryant A P, Kurtz C, Currie M G, Mayer E A, Bueno L, Neurogastroenterology and motility —2010 Volume: 22 p. 312-322; “Stress-induced changes in intestinal transit in the rat: a model for irritable bowel syndrome”, Williams C L, Villar R G, Peterson J M, Burks T F, Gastroenterology—1988 p. 611-21). Female rats were lightly anesthetized with diethyl ether and their shoulders, upper forelimbs and thoracic trunk were wrapped in a confining harness of paper tape to restrict, but not prevent body movements. Control sham-stress animals were anesthetized but not wrapped. […]
Rats were treated orally with compound A (30 mg/kg in DMSO/cremophor/isotonic saline (1:1:8 v:v:v), n=8), or vehicle only (DMSO/cremophor/isotonic saline (1:1:8 v:v:v), 1 mL, n=9) with or without 2 hour PRS sessions. The number of abdominal contractions was recorded by electromyography per 5-minute period (y axis) for each distension pressure of 0 mmHg, 15 mmHg, 30 mmHg, 45 mmHg and 60 mmHg (x axis); the ? symbols represent the results for the control+vehicle group (n=9); the symbols ? represent the results for the stress+vehicle group (n=9); the symbols ? represent the results for the stress+compound A group (n=8). Data are mean values with SEM.
Rats were treated orally with compound B (30 mg/kg in DMSO/cremophor/isotonic saline (1:1:8 v:v:v), n=9), or vehicle only (DMSO/cremophor/isotonic saline (1:1:8 v:v:v), 1 mL, n=9) with or without 2 hour PRS sessions. The number of abdominal contractions was recorded by electromyography per 5-minute period (y axis) for each distension pressure of 0 mmHg, 15 mmHg, 30 mmHg, 45 mmHg and 60 mmHg (x axis); the symbols ? represent the results for the control+vehicle group (n=9); the symbols ? represent the results for the stress+vehicle group (n=9); and the symbols ? represent the results for the stress+compound B group (n=9). Data are mean values with SEM.
The effect of FAAH inhibitor URB597 was tested at 3 mg/kg and 10 mg/kg in the PRS model of visceral hyperalgesia essentially as described in Examples 1 and 2. URB597 was formulated as a suspension in vehicle [DMSO/cremophor/isotonic saline (1:1:8 v:v:v)]. […]

The test system of assay [3] is Male Sprague Dawley (SD) rats. In words: Cortagine-induced visceral hypersensitivity to colorectal distension. The following applies: for antihyperalgesic effects in the cortagine model of visceral pain: summary statement referring to Example 3. The text has this: Male Sprague Dawley (SD) rats (250-275 g, Harlan Labs, Indianapolis, Ind.) were kept under standard conditions of humidity and temperature and a 12-hour light/dark cycle (lights on 6.00 a.m.). Animals were group housed and had access to food ad libitum. Prior to the start of studies, animals were acclimatized to handling and administration of treatments (oral syringe feeding and subcutaneous injection). At the end of the experiments, animals were sacrificed by CO2 gas inhalation followed by thoracotomy or isoflurane anesthesia followed by decapitation with appropriate approved animal protocols.
On the day of the experiments, rats were injected intraperitoneally (IP) with cortagine (10 μg/kg, 0.8 ml/kg in DMSO/cremophor/isotonic saline (1:1:8 v:v:v). Cortagine, a selective corticotropin releasing factor receptor 1 (CRF1) agonist, prepared as described previously (Rivier et al. J. Med. Chem. 2007: 50:1668-1674), was stored in a powder form at −80° C. and prepared in sterile water (12.5 μg/ml) immediately before use. This dose had previously been established to show a significant increase in defecation, induction of diarrhea and increase in colonic motility, permeability and visceral pain in rats. (Larauche et al. Am. J. Physiol. Gastrointest. Liver Physiol. 2009: 297:G215-G227)
FAAH inhibitor compounds URB597 [3′-(aminocarbonyl)biphenyl-3-yl cyclohexyl carbamate], compound A and compound B were formulated as suspensions in DMSO/cremophor/isotonic saline (1:1:8 v:v:v). The concentration of the respective dosing FAAH inhibitor compound suspensions were 6 mg/ml for 30 mg/kg dose of compound A or compound B; 2 mg/ml for the 10 mg/kg dose of compound B; and 1.5 mg/ml for the 3 mg/kg dose of URB597. Compound A, compound B or vehicle treatment was administered to rats by per os (PO) route at dose-volume of 5 ml/kg. URB597 treatment was administered to rats by subcutaneous (SC) route at dose volume of 2 ml/kg. The vehicle for the PO route was DMSO/cremophor/isotonic saline (1:1:8 v:v:v). Vehicle (PO), URB597 (SC), compound A and compound B (PO) were administered to non-fasted rats, restrained by hand. The regimen of administration of URB597, compound A and compound B involved one delivery (PO or SC) performed 120 min before IP injection of cortagine.
Visceral pain was assessed using a non-invasive pressure transducer system referred to as “sensor balloon” as previously described (Larauche et al. Am. J. Physiol. Gastrointest. Liver Physiol. 2009: 297:G215-G227; Ness et al. Brain Res. 1988: 450:153-169). Briefly, in adult non-fasted SD rats, a 4-5 cm “sensor balloon” lubricated with surgical lubricant (Surgilube, Fougera, Melville) was inserted intra-anally under brief isoflurane anesthesia. The “sensor balloon” was positioned such that its distal end was 1 cm proximal to the anal verge and secured in place by tapping the balloon catheter to the tail. Rats were placed individually in Boolman's cage and allowed to recover from anesthesia and habituation. The colorectal procedure was performed using the Distender Series Ilir dual barostat (G&J Electronics Inc, Toronto, Ontario). The CRD protocol consisted of 2 CRD at 60 mmHg to unfold the balloon followed by 2 sets of CRD at 10, 20, 40 and 60 mmHg, 20 s duration, 4-min inter-stimulus interval. The intra-luminal colonic pressure (ICP) was recorded for 20 s before, during and after termination of CRD. […]

The mark [4] stands for this setting: 30 mg/kg PO 2 h before cortagine.
[5] abbreviates: 30 mg/kg PO 2 h before cortagine 10 μg/kg IP, 40 and 60 mmHg, did not reach statistical significance.
[6] abbreviates: 30 mg/kg PO 2 h before cortagine, n=11.
The mark [7] stands for this setting: 10 mg/kg PO 2 h before cortagine, normalized to baseline VMR at 60 mmHg.

Entries after “also recorded” stand apart in the source; their conditions may differ.

On to `COc1ccc2c(c1)c(C(=O)C(=O)Nc1cccc(Cl)c1)c(C)n2Cc1ccc(Cl)cc1` [compound A, 2-(1-(4-chlorobenzyl)-5-methoxy-2-methyl-1H-indol-3-yl)-N-(3-chlorophenyl)-2-oxoacetamide], for which, in the assay on Female Wistar rats [1], the “basal sensitivity to colorectal distension (number of abdominal contractions per 5-minute period)” value was “neither compound A nor compound B alters basal sensitivity”. In addition, in the assay with Female Wistar rats [2], the “abdominal contractions versus stress+vehicle control” value is “non-significant trend towards attenuation of abdominal contractions; also recorded: exhibit antihyperalgesic effects”. For the same molecule, in assay [3] (setting [4]), the “rats with increased VMR between 0 and 50% at 60 mmHg” value was 18%; the “rats with increased VMR between 51 and 100% at 60 mmHg” value was found to be 27%; the “rats with increased VMR over 101% at 60 mmHg” value is 9%. Also, the “effect on cortagine-induced visceral hypersensitivity to CRD” value (“effect … to CRD” below) in assay [3] (setting [5]) is “trend to decrease the cortagine-induced visceral hypersensitivity; also recorded: trend to reduce cortagine-induced visceral hypersensitivity”. Besides, the “rats presenting an increased VMR over baseline (% hypersensitive rats) at 60 mmHg” value in assay [3] (setting [6]) came to 55%. Further, in assay [3], the “antihyperalgesic effects in the cortagine model of visceral pain” value was “exhibit antihyperalgesic effects”.
For `COc1cc(NC(=O)C(=O)c2c(C)n(Cc3ccc(Cl)cc3)c3ccc(C)cc23)ccn1` [compound B, 2-(1-(4-chlorobenzyl)-2,5-dimethyl-1H-indol-3-yl)-N-(2-methoxypyridin-4-yl)-2-oxoacetamide], the “basal sensitivity to colorectal distension (number of abdominal contractions per 5-minute period)” value in the assay on Female Wistar rats [1] is “neither compound A nor compound B alters basal sensitivity”. For the same molecule, the “abdominal contractions versus stress+vehicle control” value in the assay on Female Wistar rats [2] was “significantly reduced abdominal contractions; also recorded: exhibit antihyperalgesic effects”. Besides, in assay [3] (10 mg/kg PO 2 h before cortagine), the “% hypersensitive rats at 40 mmHg” value is 36%. For the same molecule, the “effect … to CRD” value in assay [3] (10 mg/kg PO 2 h before cortagine 10 μg/kg IP) is reported as “abolished the visceral hypersensitivity; also recorded: prevented the visceral hypersensitivity”. Also, the “rats presenting a decrease in VMR compared to baseline at 60 mmHg” value in assay [3] (10 mg/kg PO 2 h before cortagine, n=11) amounted to 64%. The “rats presenting an increased VMR over baseline (% hypersensitive rats) at 60 mmHg” value in assay [3] (10 mg/kg PO 2 h before cortagine, n=11, all increases between 0 and 50%) is 36%. In assay [3] (setting [7]), the “VMR to CRD at 40 mmHg” value is listed as 84.74±13.54% and the “VMR to CRD at 60 mmHg” value came out at 87.75±10.96%. In assay [3] (setting [4]), the “rats with increased VMR between 0 and 50% at 60 mmHg” value turned out to be 45%; the “rats with increased VMR over 101% at 60 mmHg” value is on record as 9%. Besides, the “effect … to CRD” value in assay [3] (setting [5]) is reported as “trend to dampen the development of the visceral hypersensitivity; also recorded: trend to reduce cortagine-induced visceral hypersensitivity”. Besides, the “rats presenting an increased VMR over baseline (% hypersensitive rats) at 60 mmHg” value in assay [3] (setting [6]) came out at 55%. Further, in assay [3], the “antihyperalgesic effects in the cortagine model of visceral pain” value is “exhibit antihyperalgesic effects”.

The record behind these values is patent US20130224151A1, “Use of FAAH Inhibitors for Treating Abdominal, Visceral and Pelvic Pain” (UNITED STATES OF AMERICA, priority 2010, published 2013).
